Drawing on patent US10961202B2, “Bis-benzimidazole compounds and methods of using the same” (THE SCRIPPS RESEARCH INSTITUTE, priority 2017, dated 2021), this text covers IC50 for 42 compounds.

pIC50: −log10 of the molar value.

In the experiment the test system is r(CUG)12-MBNL1 complex. Nature of the experiment: Inhibition of the r(CUG)12-MBNL1 complex measured by TR-FRET. It counts as biochemical. The note with it: Table L; 80 nM RNA, 60 nM MBNL1-His6. For orientation: In TR-FRET formats the signal depends on donor and acceptor labels being close together.

Regarding `CN(C)CCCNC(=O)c1ccc2nc(-c3ccc(-c4nc5ccc(C(=O)NCCCN(C)C)cc5[nH]4)cc3)[nH]c2c1` [Compound 36, 2,2′-(1,4-phenylene)bis(N-(3-(dimethylamino)propyl)-1H-benzo[d]imidazole-6-carboxamide)], the pIC50 (usually −log10 of the IC50, conventionally taken in molar units) was 5.11.
The figure for `CN(C)CCNC(=O)c1ccc2nc(-c3ccc(-c4nc5ccc(C(=O)NCCN(C)CCN)cc5[nH]4)cc3)[nH]c2c1` [Compound 37, N-(2-((2-aminoethyl)(methyl)amino)ethyl)-2-(4-(6-((2-(dimethylamino)ethyl)carbamoyl)-1H-benzo[d]imidazol-2-yl)phenyl)-1H-benzo[d]imidazole-6-carboxamide] is 5.11; for `COC(=O)[C@H](CCCNC(=N)N)NC(=O)c1ccc2nc(-c3ccc(-c4nc5ccc(C(=O)N[C@@H](CCCNC(=N)N)C(=O)OC)cc5[nH]4)cc3)[nH]c2c1` [Compound 39] it is 5.36.
The figure for `O=C(NCCN1CCCC1)c1ccc2nc(-c3ccc(-c4nc5ccc(C(=O)NCCN6CCCC6)cc5[nH]4)cc3)[nH]c2c1` [Compound 40, 2,2′-(1,4-phenylene)bis(N-(2-(pyrrolidin-1-yl)ethyl)-1H-benzo[d]imidazole-6-carboxamide)] is 5.15.
As for `O=C(NCCN1CCOCC1)c1ccc2nc(-c3ccc(-c4nc5ccc(C(=O)NCCN6CCOCC6)cc5[nH]4)cc3)[nH]c2c1` [Compound 42, 2,2′-(1,4-phenylene)bis(N-(2-morpholinoethyl)-1H-benzo[d]imidazole-6-carboxamide)], the figure is below 3.70.
Compound `O=C(O)c1ccc2nc(-c3ccc(-c4nc5ccc(C(=O)NCCN6CCCCC6)cc5[nH]4)cc3)[nH]c2c1` [Compound 43, 2-(4-(6-((2-(piperidin-1-yl)ethyl)carbamoyl)-1H-benzo[d]imidazol-2-yl)phenyl)-1H-benzo[d]imidazole-6-carboxylic Acid] showed a pIC50 below 3.70.
With `CN1CCN(CCNC(=O)c2ccc3nc(-c4ccc(-c5nc6ccc(C(=O)NCCN7CCN(C)CC7)cc6[nH]5)cc4)[nH]c3c2)CC1` [Compound 45, 2,2′-(1,4-phenylene)bis(N-(2-(4-methylpiperazin-1-yl)ethyl)-1H-benzo[d]imidazole-6-carboxamide)], the pIC50 was 4.74.
`CC(C)(C)OC(=O)N1CCN(CCNC(=O)c2ccc3nc(-c4ccc(-c5nc6ccc(C(=O)NCCN7CCN(C(=O)OC(C)(C)C)CC7)cc6[nH]5)cc4)[nH]c3c2)CC1` [Compound 46, di-tert-butyl 4,4′-(((2,2′-(1,4-phenylene)bis(1H-benzo[d]imidazole-6,6′-carbonyl))bis(azanediyl))bis(ethane-2,1-diyl))bis(piperazine-1-carboxylate)] showed a pIC50 below 3.70.
As for `O=C(NCCCN1CCCCC1)c1ccc2nc(-c3ccc(-c4nc5ccc(C(=O)NCCCN6CCCCC6)cc5[nH]4)cc3)[nH]c2c1` [Compound 48, 2,2′-(1,4-phenylene)bis(N-(3-(piperidin-1-yl)propyl)-1H-benzo[d]imidazole-6-carboxamide)], the figure is 4.99; as for `CN(C)CCNC(=O)c1ccc2nc(-c3ccc(-c4nc5ccc(C(=O)NCCNC(=O)OC(C)(C)C)cc5[nH]4)cc3)[nH]c2c1` [Compound 49, tert-butyl (2-(2-(4-(6-((2-(dimethylamino)ethyl)carbamoyl)-1H-benzo[d]imidazol-2-yl)phenyl)-1H-benzo[d]imidazole-6-carboxamido)ethyl)carbamate], 4.66; as for `CC(C)(C)OC(=O)NCCNC(=O)c1ccc2nc(-c3ccc(-c4nc5ccc(C(=O)NCCNC(=O)OC(C)(C)C)cc5[nH]4)cc3)[nH]c2c1` [Compound 50, di-tert-butyl(((2,2′-(1,4-phenylene)bis(1H-benzo[d]imidazole-6,6′-carbonyl))bis(azanediyl))bis(ethane-2,1-diyl))dicarbamate], below 3.70.
As for `CC(=O)NCCNC(=O)c1ccc2nc(-c3ccc(-c4nc5ccc(C(=O)NCCNC(C)=O)cc5[nH]4)cc3)[nH]c2c1` [Compound 51, 2,2′-(1,4-phenylene)bis(N-(2-acetamidoethyl)-1H-benzo[d]imidazole-6-carboxamide)], the figure is below 3.70; as for `CCCNC(=O)c1ccc2nc(-c3ccc(-c4nc5ccc(C(=O)NCCC)cc5[nH]4)cc3)[nH]c2c1` [Compound 52, 2,2′-(1,4-phenylene)bis(N-propyl-1H-benzo[d]imidazole-6-carboxamide)], below 3.70; as for `COCCNC(=O)c1ccc2nc(-c3ccc(-c4nc5ccc(C(=O)NCCOC)cc5[nH]4)cc3)[nH]c2c1` [Compound 53, 2,2′-(1,4-phenylene)bis(N-(2-methoxyethyl)-1H-benzo[d]imidazole-6-carboxamide)], below 3.70.
As for `CN(C)CCOC(=O)c1ccc2nc(-c3ccc(-c4nc5ccc(C(=O)OCCN(C)C)cc5[nH]4)cc3)[nH]c2c1` [Compound 54, bis(2-(dimethylamino)ethyl) 2,2′-(1,4-phenylene)bis(1H-benzo[d]imidazole-6-carboxylate)], the figure is 5.44; as for `CN(C)CCCOC(=O)c1ccc2nc(-c3ccc(-c4nc5ccc(C(=O)OCCCN(C)C)cc5[nH]4)cc3)[nH]c2c1` [Compound 56], 5.30.
In turn, `CN(C)CCOc1ccc2nc(-c3ccc(-c4nc5ccc(OCCN(C)C)cc5[nH]4)cc3)[nH]c2c1` [Compound 57, 2,2′-((2,2′-(1,4-phenylene)bis(1H-benzo[d]imidazole-6,2-diyl))bis(oxy))bis(N,N-dimethylethanamine)] showed a pIC50 of 3.92.
The figure for `CN(C)CCNCc1ccc2nc(-c3ccc(-c4nc5ccc(CNCCN(C)C)cc5[nH]4)cc3)[nH]c2c1` [Compound 61] is below 3.70; for `CON(C)Cc1ccc2nc(-c3ccc(-c4nc5ccc(CNCCN(C)C)cc5[nH]4)cc3)[nH]c2c1` [Compound 62] it is below 3.70.
As for `CN(C)CC(=O)Nc1ccc2nc(-c3ccc(-c4nc5ccc(NC(=O)CN(C)C)cc5[nH]4)cc3)[nH]c2c1` [Compound 63], the figure is 4.97; as for `CN(C)CCNC(=O)Nc1ccc2nc(-c3ccc(-c4nc5ccc(NC(=O)NCCN(C)C)cc5[nH]4)cc3)[nH]c2c1` [Compound 64], 4.57; as for `CN(C)NC(=O)Nc1ccc2nc(-c3ccc(-c4nc5ccc(NC(=O)NN(C)C)cc5[nH]4)cc3)[nH]c2c1` [Compound 66, N,N′-(2,2′-(1,4-phenylene)bis(1H-benzo[d]imidazole-6,2-diyl))bis(2,2-dimethylhydrazinecarboxamide)], below 3.70.
`CN(C)NC(=O)c1ccc2nc(-c3ccc(-c4nc5ccc(C(=O)NN(C)C)cc5[nH]4)cc3)[nH]c2c1` [Compound 67] gave a pIC50 below 3.70.
The figure for `CN(C)CCN(C)C(=O)c1ccc2nc(-c3ccc(-c4nc5ccc(C(=O)N(C)CCN(C)C)cc5[nH]4)cc3)[nH]c2c1` [Compound 68] is below 3.70; for `COC(=O)CCC(=O)NCCN(C)CCNC(=O)c1ccc2nc(-c3ccc(-c4nc5ccc(C(=O)NCCN(C)C)cc5[nH]4)cc3)[nH]c2c1` [Compound 72] it is 4.28; for `C#CCCCCN(C)CCNC(=O)c1ccc2nc(-c3ccc(-c4nc5ccc(C(=O)NCCN(C)C)cc5[nH]4)cc3)[nH]c2c1` [Compound 73] it is 5.02.
As for `CN(C)CCNC(=O)c1ccc2nc(-c3ccc(-c4nc5ccc(C(=O)NCCN(C)CCCCc6cn(CCCN)nn6)cc5[nH]4)cc3)[nH]c2c1` [Compound 74], the figure is 5.17; as for `c1cc2nc(-c3ccc(-c4nc5ccc(NC6=NCCN6C6=NCCN6)cc5[nH]4)cc3)[nH]c2cc1NC1=NCCN1` [Compound 76], 4.84.
The figure for `CN(C)CCNC(=O)c1ccc2nc(-c3ccc(-c4nc5ccc(C(=O)NCCN(C)C)cc5[nH]4)c(Br)c3)[nH]c2c1` [Compound 78] is below 3.70.
`O=[N+]([O-])c1ccc2nc(-c3ccc(-c4ccc(-c5nc6ccc([N+](=O)[O-])cc6[nH]5)cc4)cc3)[nH]c2c1` [Compound 79] gave a pIC50 of 4.36.
As for `Nc1ccc2nc(-c3ccc(-c4ccc(-c5nc6ccc(N)cc6[nH]5)cc4)cc3)[nH]c2c1` [Compound 80], the figure is 4.50.
As for `N=C(N)Nc1ccc2nc(-c3ccc(-c4ccc(-c5nc6ccc(NC(=N)N)cc6[nH]5)cc4)cc3)[nH]c2c1` [Compound 81], the figure is 5.21.
The figure for `Cn1c(-c2ccc(-c3nc4ccccc4n3C)cc2)nc2ccccc21` [Compound 82] is below 3.70.
For the compound `Cn1c(-c2ccc(-c3nc4cc(N)ccc4n3C)cc2)nc2cc(N)ccc21` [Compound 83, 2,2′-(1,4-phenylene)bis(1-methyl-1H-benzo[d]imidazol-5-amine)], the pIC50 is below 3.70.
As for `Cn1c(-c2ccc(-c3nc4ccc(N)cc4n3C)cc2)nc2cc(N)ccc21` [Compound 84, 2-[4-(6-amino-1-methyl-1H-benzimidazol-2-yl)phenyl]-1-methyl-1H-benzimidazol-5-amine], the figure is below 3.70; as for `Cn1c(-c2ccc(-c3nc4ccc(N)cc4n3C)cc2)nc2ccc(N)cc21` [Compound 85, 2,2′-(1,4-phenylene)bis(1-methyl-1H-benzimidazol-6-amine)], below 3.70.
The figure for `Cn1c(-c2ccc(-c3nc4ccc(NC(=N)N)cc4n3C)cc2)nc2cc(NC(=N)N)ccc21` [Compound 87] is below 3.70; for `Cn1c(-c2ccc(-c3nc4ccc(NC(=N)N)cc4n3C)cc2)nc2ccc(NC(=N)N)cc21` [Compound 88] it is below 3.70; for `Cn1c(-c2ccc(-c3nc4cc(Br)ccc4n3C)cc2)nc2cc(Br)ccc21` [Compound 89, 1,4-bis(5-bromo-1-methyl-1H-benzo[d]imidazol-2-yl)benzene] it is below 3.70.
As for `Cn1c(-c2ccc(-c3nc4ccc(Br)cc4n3C)cc2)nc2ccc(Br)cc21` [Compound 90, 1,4-bis(6-bromo-1-methyl-1H-benzo[d]imidazol-2-yl)benzene], the figure is below 3.70.
`O=[N+]([O-])c1ccc(-c2nc3cc(-c4ccc5[nH]c(-c6ccc([N+](=O)[O-])cc6)nc5c4)ccc3[nH]2)cc1` [Compound 94] gave a pIC50 below 3.70.
As for `Nc1ccc(-c2nc3cc(-c4ccc5[nH]c(-c6ccc(N)cc6)nc5c4)ccc3[nH]2)cc1` [Compound 95, 4,4′-(1H,1′H-[5,5′-bibenzo[d]imidazole]-2,2′-diyl)dianiline], the figure is 3.97.
